Literature values as cited in patent US20050118266A1, “Sustained/controlled release solid formulation as a novel drug delivery system with reduced risk of dose dumping” (priority 2002, published 2005).

Conditions: according to Biopharmaceutics Classification System
In the case of `O=C(O)Cc1ccccc1Nc1c(Cl)cccc1Cl` [diclofenac sodium], the BCS class is listed as “Class II” and the “solubility (BCS category)” value is listed as “poorly soluble”.
For `Cc1cccc(Nc2ccncc2S(=O)(=O)NC(=O)NC(C)C)c1` [torasemide], the BCS class is listed as “Class I” and the “solubility (BCS category)” value is listed as “highly soluble”.
For `CNC(=C[N+](=O)[O-])NCCSCc1ccc(CN(C)C)o1` [ranitidine], the “solubility (BCS category)” value is listed as “highly soluble”.
In the case of `NCC1(CC(=O)O)CCCCC1` [gabapentin], the “solubility (BCS category)” value is given as “highly soluble”.
For `CC[C@H](C)C(=O)O[C@H]1C[C@H](O)C=C2C=C[C@H](C)[C@H](CC[C@@H](O)C[C@@H](O)CC(=O)O)[C@H]21` [pravastatin sodium], the “solubility (BCS category)” value is listed as “highly soluble”.
